Data as given in ChEMBL document CHEMBL5104103 (J Med Chem, 2022).

What was measured:
[1] = Inhibition of IL-2 production in TCR-stimulated T-cells in human whole blood; assay type: functional, tissue-based; conditions: T-cell
[2] = biological target: T1, Tyrosine-protein kinase Tec (Homo sapiens) (UniProt P42680); test: Displacement of competitive tracer from TEC (unknown origin) assessed as target occupancy at […] preincubated for 15 mins measured for 6 hrs relative to control; conditions: dose 1.5 µM
T1 sequence (whole entry): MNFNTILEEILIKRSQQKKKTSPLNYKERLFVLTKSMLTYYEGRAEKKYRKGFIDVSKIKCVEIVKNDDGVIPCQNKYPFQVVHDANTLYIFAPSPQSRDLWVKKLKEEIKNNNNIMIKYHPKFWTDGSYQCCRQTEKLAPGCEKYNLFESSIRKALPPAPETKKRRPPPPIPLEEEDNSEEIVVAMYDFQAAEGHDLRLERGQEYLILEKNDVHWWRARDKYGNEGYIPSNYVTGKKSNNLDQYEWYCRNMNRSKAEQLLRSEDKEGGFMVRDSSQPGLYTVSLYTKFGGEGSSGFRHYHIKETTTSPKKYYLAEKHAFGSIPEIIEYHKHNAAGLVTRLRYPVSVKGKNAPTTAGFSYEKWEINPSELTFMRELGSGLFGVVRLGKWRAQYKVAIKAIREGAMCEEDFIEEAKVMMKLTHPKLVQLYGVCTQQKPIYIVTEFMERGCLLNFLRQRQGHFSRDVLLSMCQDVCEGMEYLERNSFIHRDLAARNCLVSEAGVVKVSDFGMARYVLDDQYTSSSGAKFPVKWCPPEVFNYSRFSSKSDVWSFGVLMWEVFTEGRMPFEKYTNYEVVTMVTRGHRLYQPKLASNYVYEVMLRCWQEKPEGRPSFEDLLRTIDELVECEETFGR

[3] = biological target: T2, Tyrosine-protein kinase ITK/TSK (Homo sapiens) (UniProt Q08881); test: Displacement of competitive tracer from ITK (unknown origin) assessed as target occupancy at […] preincubated for 15 mins measured for 24 hrs relative to control; conditions: dose 1.5 µM
T2 sequence (whole entry): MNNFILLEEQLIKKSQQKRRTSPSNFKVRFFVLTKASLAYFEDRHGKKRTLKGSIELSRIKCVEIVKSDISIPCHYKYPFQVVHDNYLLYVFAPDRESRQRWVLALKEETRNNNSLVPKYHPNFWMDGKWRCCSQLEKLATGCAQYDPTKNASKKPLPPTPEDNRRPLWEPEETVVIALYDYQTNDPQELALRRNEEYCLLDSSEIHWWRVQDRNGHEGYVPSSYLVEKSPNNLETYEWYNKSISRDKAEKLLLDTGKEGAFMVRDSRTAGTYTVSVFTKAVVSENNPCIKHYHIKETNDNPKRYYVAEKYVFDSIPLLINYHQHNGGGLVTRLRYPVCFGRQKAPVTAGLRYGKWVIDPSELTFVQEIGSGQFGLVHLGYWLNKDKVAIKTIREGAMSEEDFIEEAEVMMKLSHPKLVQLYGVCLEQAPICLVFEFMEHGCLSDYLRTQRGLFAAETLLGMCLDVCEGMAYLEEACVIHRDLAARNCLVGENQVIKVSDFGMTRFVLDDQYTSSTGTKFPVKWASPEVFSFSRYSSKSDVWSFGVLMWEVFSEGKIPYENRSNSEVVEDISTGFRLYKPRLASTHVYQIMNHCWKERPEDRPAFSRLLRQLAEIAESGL

Question: Which results are given for CC(C)(C)/C=C(\C#N)C(=O)N1CCC[C@@H](n2nc(-c3ccc(Oc4ccccc4)cc3F)c3c(N)ncnc32)C1 [ATUZABRUTINIB]?
Answer: IC50 [1]: > 5 µM; Activity [2]: 80%; Activity [3]: -7%
